Several values for one entry are separate records, joined by “and”; a condition that tells them apart may be missing. Equal values may be shown once. Toxic doses and inconclusive results are not listed. The calls were made as follows: active = survival T/C of 150% or more; inactive = T/C below 125% in these data.
System: P388 leukemia ip, CD2F1 mice, survival T/C
Assay: NCI In Vivo Anticancer Drug Screen. Data for tumor model P388 Leukemia (intraperitoneal) in CD2F1 (CDF1) mice
Conditions: endpoint: median survival time, higher = longer survival
Protocol: The antitumor activity of compounds was measured in mice bearing transplantable tumors. Survival or tumor size were measured and the results are expressed as the measurement made in the treated group (T) divided by the measurement made in the vehicle treated control group (C). The tumor model used in this assay is P388 Leukemia (intraperitoneal) in CD2F1 (CDF1) mice

[1] = dose: 60.0 mg/kg/injection, schedule: Q01DX005 (ip), vehicle: saline with Tween-80
[2] = dose: 120.0 mg/kg/injection, schedule: Q01DX005 (ip), vehicle: saline with Tween-80
[3] = dose: 240.0 mg/kg/injection, schedule: Q01DX005 (ip), vehicle: saline with Tween-80
[4] = dose: 25.0 mg/kg/injection, schedule: Q01DX009 (ip), vehicle: saline with Tween-80
[5] = dose: 50.0 mg/kg/injection, schedule: Q01DX009 (ip), vehicle: saline with Tween-80
[6] = dose: 100.0 mg/kg/injection, schedule: Q01DX009 (ip), vehicle: saline with Tween-80
[7] = dose: 200.0 mg/kg/injection, schedule: Q01DX009 (ip), vehicle: saline with Tween-80
[8] = dose: 100.0 mg/kg/injection, schedule: Q04DX003 (ip), vehicle: saline with Tween-80
[9] = dose: 50.0 mg/kg/injection, schedule: Q01DX005 (ip), vehicle: saline
[10] = dose: 50.0 mg/kg/injection, schedule: Q01DX005 (ip), vehicle: saline with Tween-80
[11] = dose: 50.0 mg/kg/injection, schedule: Q01DX005 (ip), vehicle: Klucel (hydroxypropylcellulose) (HPC)
[12] = dose: 100.0 mg/kg/injection, schedule: Q01DX005 (ip), vehicle: Klucel (hydroxypropylcellulose) (HPC)

Measured: T/C

C=CCN1CCc2c([nH]c3cc(OC)ccc23)C1C (stereo not given)
inactive: dose: 9.0 mg/kg/injection, schedule: Q01DX005 (ip), vehicle: Klucel (hydroxypropylcellulose) (HPC) 95 % of control | dose: 18.0 mg/kg/injection, schedule: Q01DX005 (ip), vehicle: Klucel (hydroxypropylcellulose) (HPC) 94 % of control | dose: 36.0 mg/kg/injection, schedule: Q01DX005 (ip), vehicle: Klucel (hydroxypropylcellulose) (HPC) 89 % of control | dose: 72.0 mg/kg/injection, schedule: Q01DX005 (ip), vehicle: Klucel (hydroxypropylcellulose) (HPC) 94 % of control | dose: 144.0 mg/kg/injection, schedule: Q01DX005 (ip), vehicle: Klucel (hydroxypropylcellulose) (HPC) 94 % of control

CCCCCCCC/C=C\CCCCCCCCN1CC(C(=O)[O][Pb]([CH2]C)([CH2]C)[CH2]C)CC1=O (stereo not given)
inactive: dose: 0.75 mg/kg/injection, schedule: Q01DX009 (ip), vehicle: saline with Tween-80 105 % of control | dose: 1.5 mg/kg/injection, schedule: Q01DX009 (ip), vehicle: saline with Tween-80 105 % of control | dose: 6.0 mg/kg/injection, schedule: Q01DX009 (ip), vehicle: saline with Tween-80 115 % of control

C=C1C(O)C2(O)OCC34C(CC5C(C)=CC(=O)C(O)C5(C)C23)OC(=O)C(O)C14O (stereo not given)
inactive: dose: 6.25 mg/kg/injection, schedule: Q01DX009 (ip), vehicle: saline 93 % of control

O=C(O)c1ccc2c(c1)S(=O)(=O)NC2=O
inactive: [1] 95 % of control | [2] 99 % of control | [3] 101 % of control

CN(C)C=C1C=c2cc(C(=O)c3ccccc3)c(=O)c(C(=O)c3ccccc3)cc2=C1
inactive: dose: 100.0 mg/kg/injection, schedule: Q01DX001 (ip), vehicle: saline 108 % of control | dose: 200.0 mg/kg/injection, schedule: Q01DX001 (ip), vehicle: saline 108 % of control | dose: 400.0 mg/kg/injection, schedule: Q01DX001 (ip), vehicle: saline 97 % of control

c1ccc2c(NCCCNCCCNc3c4ccccc4nc4ccccc34)c3ccccc3nc2c1
inactive: dose: 0.63 mg/kg/injection, schedule: Q01DX009 (ip), vehicle: other 112 % of control | dose: 1.25 mg/kg/injection, schedule: Q01DX009 (ip), vehicle: other 102 % of control and 118 % of control | dose: 2.5 mg/kg/injection, schedule: Q01DX009 (ip), vehicle: other 112 % of control | dose: 5.0 mg/kg/injection, schedule: Q01DX009 (ip), vehicle: other 118 % of control | dose: 10.0 mg/kg/injection, schedule: Q01DX009 (ip), vehicle: other 110 % of control

CC(C)n1ncc2c(N)ncnc21
inactive: dose: 3.75 mg/kg/injection, schedule: Q01DX009 (ip), vehicle: saline 100 % of control | dose: 7.5 mg/kg/injection, schedule: Q01DX009 (ip), vehicle: saline 95 % of control | dose: 15.0 mg/kg/injection, schedule: Q01DX009 (ip), vehicle: saline 104 % of control and 95 % of control

CCOC(=O)C1=C(C#N)C2(CCC(OCc3ccccc3)CC2)C(=O)O1 (stereo not given)
inactive: [4] 90 % of control | dose: 25.0 mg/kg/injection, schedule: Q01DX009 (ip), vehicle: saline 104 % of control | [5] 92 % of control | dose: 50.0 mg/kg/injection, schedule: Q01DX009 (ip), vehicle: saline 104 % of control and 106 % of control and 100 % of control | [6] 119 % of control | dose: 100.0 mg/kg/injection, schedule: Q01DX009 (ip), vehicle: saline 108 % of control and 116 % of control and 102 % of control | [7] 123 % of control | dose: 200.0 mg/kg/injection, schedule: Q01DX009 (ip), vehicle: saline 119 % of control and 100 % of control

O=c1cc(-c2ccccc2)ss1
inactive: dose: 100.0 mg/kg/injection, schedule: Q01DX009 (ip), vehicle: other 110 % of control | dose: 200.0 mg/kg/injection, schedule: Q01DX009 (ip), vehicle: other 110 % of control

O=C(Nc1ccc2c(c1)OCO2)O/N=C1\C(=O)Nc2ccccc21
inactive: dose: 25.0 mg/kg/injection, schedule: Q04DX003 (ip), vehicle: saline with Tween-80 100 % of control | dose: 50.0 mg/kg/injection, schedule: Q04DX003 (ip), vehicle: saline with Tween-80 90 % of control | [8] 90 % of control

Cc1ccccc1N1CC2CC3C=CC2(C1)O3 (stereo not given)
inactive: [1] 104 % of control | [2] 97 % of control | [3] 97 % of control

C/C(CC(=O)c1ccccc1)=C1\C(=O)NN(c2ccccc2)C1=O
inactive: [1] 101 % of control | [2] 101 % of control | [3] 93 % of control

CCOC(=O)c1sc(C(=O)OCC)c2c1-c1cccc3cccc-2c13
inactive: [1] 100 % of control | [2] 99 % of control | [3] 97 % of control

CC(=O)CC(=O)c1ccccc1.CC(=O)CC(=O)c1ccccc1.[CH3][Sn][CH3]
inactive: dose: 100.0 mg/kg/injection, schedule: Q01DX001 (ip), vehicle: Klucel (hydroxypropylcellulose) (HPC) 95 % of control | dose: 200.0 mg/kg/injection, schedule: Q01DX001 (ip), vehicle: Klucel (hydroxypropylcellulose) (HPC) 99 % of control | dose: 400.0 mg/kg/injection, schedule: Q01DX001 (ip), vehicle: Klucel (hydroxypropylcellulose) (HPC) 96 % of control

C=CC(=O)NC(C(=O)O)C(C)C (stereo not given)
inactive: [9] 97 % of control | dose: 100.0 mg/kg/injection, schedule: Q01DX005 (ip), vehicle: saline 97 % of control | dose: 200.0 mg/kg/injection, schedule: Q01DX005 (ip), vehicle: saline 100 % of control

CCCC(C)N(CCCNc1cc(OC)cc2cccnc12)CC(C)C (stereo not given)
inactive: dose: 12.5 mg/kg/injection, schedule: Q01DX005 (ip), vehicle: saline 100 % of control | dose: 25.0 mg/kg/injection, schedule: Q01DX005 (ip), vehicle: saline 107 % of control | [10] 96 % of control | [9] 94 % of control

O=C1C(Br)=Cc2cccc3cccc1c23
inactive: [4] 100 % of control | [5] 100 % of control | [6] 100 % of control

CCCCN(CCCC)C(=N)c1cc(OC)ccc1OC
inactive: dose: 3.12 mg/kg/injection, schedule: Q01DX005 (ip), vehicle: saline 101 % of control | dose: 6.25 mg/kg/injection, schedule: Q01DX005 (ip), vehicle: saline 100 % of control

CC(=O)Nc1nc(CC(N)C(=O)O)c[se]1 (stereo not given)
inactive: [11] 97 % of control | [12] 97 % of control | dose: 200.0 mg/kg/injection, schedule: Q01DX005 (ip), vehicle: Klucel (hydroxypropylcellulose) (HPC) 97 % of control

Cc1cc2ncnn2cn1
inactive: [8] 99 % of control | dose: 200.0 mg/kg/injection, schedule: Q04DX003 (ip), vehicle: saline with Tween-80 99 % of control | dose: 400.0 mg/kg/injection, schedule: Q04DX003 (ip), vehicle: saline with Tween-80 93 % of control

COc1ccc(-c2ccc(OC)c(=O)cc2)c(OC)c1OC
inactive: [11] 93 % of control | [12] 105 % of control

O=C(O)[C@@H]1c2ccccc2-c2ccccc2[C@H]1C(=O)O
inactive: [10] 98 % of control | dose: 100.0 mg/kg/injection, schedule: Q01DX005 (ip), vehicle: saline with Tween-80 95 % of control | dose: 200.0 mg/kg/injection, schedule: Q01DX005 (ip), vehicle: saline with Tween-80 107 % of control

O=C1OC(OC/C(Br)=C(/Br)COC2OC(=O)C(Cl)=C2Cl)C(Cl)=C1Cl (stereo not given)
inactive: [1] 106 % of control | [2] 108 % of control

CC(=O)OCCN1CCOC(O)(c2cccc(C(F)(F)F)c2)C1 (stereo not given)
inactive: [1] 115 % of control | [2] 108 % of control | [3] 113 % of control

O=C1N(c2ccccc2)C(=O)N1c1ccccc1
inactive: [4] 93 % of control | [5] 99 % of control | [6] 108 % of control | [7] 97 % of control

Reference: PubChem BioAssay AID330 (DTP/NCI, 2004)
